We go through eight compounds from patent US9150829B2, “Culture of pluripotent and multipotent cells on microcarriers” (AGENCY FOR SCIENCE, TECHNOLOY AND RESEARCH, priority 2009, dated 2015).

Converted amounts (≈) assume the structure as drawn.

One assay addresses T1, PKCiota-Par6 interaction (Homo sapiens, UniProt P41743).
T1 sequence (P41743 10-122 limits assumed): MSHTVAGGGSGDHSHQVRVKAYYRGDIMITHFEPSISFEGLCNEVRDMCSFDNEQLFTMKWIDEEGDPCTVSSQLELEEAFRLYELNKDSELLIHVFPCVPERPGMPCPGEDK
The conditions noted are these: read-out: IC50 (PKCiota-Par6 interaction inhibitor); cited from earlier work.

Assay [1] concerns hESC. The experiment in a line: FACS of pluripotent markers in hESC on microcarriers. The class given is cell-based, human. Here is the method: Characterisation was performed according to our recent paper by Oh et al., 2009 (Long term microcarrier suspension cultures of human embryonic stem cells, Stem Cell Research (2009)).
(§1) Briefly, expression levels of extracellular antigens TRA-1-60 and intracellular transcription factor, Oct-4 in hESC populations are assessed by immunofluorescence using flow cytometry. Cells are harvested as single cell suspensions using trypsin or trypLE express, filtered through a 40 μm sieve (BD) fixed, permeabilised (Caltag Laboratories) and incubated with primary antibodies to TRA-1-60 (1:50 dilution, Chemicon, MAB4360/4381) and to Oct-4 (1:20 dilution, Santa Cruz).
(§2) Cells are then washed with 1% BSA/PBS, and incubated in the dark with a 1:500 dilution of goat α-mouse antibody FITC-conjugated (DAKO). After incubation, the cells are again washed and resuspended in 1% BSA/PBS for analysis on a FACScan (Becton Dickinson FACS Calibur). All incubations are performed at room temperature for 15 min.

The test system of assay [2] is hESC. Kind of assay: hESC growth and passaging on uncoated microcarriers without Matrigel with ROCK inhibitor. The class given is cell-based, human. Here is the method:
Cells suspension obtained either from dispersed 2D colony culture or directly from liquid nitrogen storage (200×200 μm tissue obtained from 2D colony culture or as cell-microcarriers aggregates) are seeded at concentrations of 0.1-0.3×10^6/ml on microcarrier suspension (4 mg/ml). […] The media used are either MEF-CM or defined media. Medium is changed daily. The cultures are passaged weekly following either enzymatic treatment with collagenase or trypLE or following mechanical dissociating by repeated pipetting at a split ratio of 1:2 to 1:10. Replating of microcarrier cultures to 2D colony culture is done by placing confluent cell-microcarrier aggregates on Matrigel coated 6 cm tissue culture petridish with 8 mls of media, and culturing the cells for 7 days. Seeding of hESC on DE53, QA52, Tosoh, Cytodex 1 and Cytodex 3 microcarriers hESC were seeded on uncoated microcarriers and passaged weekly following the protocol of Example 3 and that of Oh et al., 2009 (Long term microcarrier suspension cultures of human embryonic stem cells, Stem Cell Research (2009)). All chemicals were purchased from Calbiochem. All inhibitors were diluted to their final working concentration in conditioned media prior to feeding hESC on microcarriers.

Assay [3] concerns hESC (HES-2). Kind of assay: Pluripotent marker expression in HES-2 on matrix free microcarriers with ROCK inhibitors. The class given is cell-based, human. The conditions noted are these: for expression of pluripotent marker Oct4 / expression of pluripotent marker Tra-1-60: DE53. Here is the method: as §1, §2
A range of ROCK inhibitors (at 10 μM) were tested for their ability to allow hESC (HES-2) cell culture on matrix free cellulose DE53 microcarriers. These included fasudil, hydroxyfasudil and […] and were compared to a control (DE53 microcarriers coated in Matrigel).

The next assay has as its target MLCK (Homo sapiens, UniProt Q15746). The conditions noted are these: cited from earlier work.
The target of another assay is Rho kinase (ROCK). The conditions noted are these: cited from earlier work.
The target in another assay is PKC. The conditions noted are these: read-out: Ki PKC; cited from earlier work.
Assay [4] concerns iPS IMR90 cells. Kind of assay: Pluripotent marker expression in human iPS cells on DE53 microcarriers. It counts as cell-based. The conditions noted are these: uncoated DE53, mTeSR1, 10 μM daily, 12 passages. Here is the method: as §1, §2
(§3) iPS IMR90 cells (1.6×10^5 cells/ml) were cultured in wells of a 6-well plate with 20 mg of uncoated DE53, 5 ml of serum free media mTeSR1, 4 μl of ROCK inhibitor (Y27632) [10 μM]. 80% media refreshment and addition of inhibitor was carried out daily.

The subject of assay [5] is hESC (HES-2). Kind of assay: Pluripotent marker expression in HES-2 on matrix free microcarriers with ROCK inhibitors. As to conditions: Cytodex 1, 10 μM, passage 5. The class given is cell-based, human.
Assay [6] deals with iPS IMR90 cells. Kind of assay: Human iPS cell growth on uncoated DE53 microcarriers with ROCK inhibitor. It counts as cell-based. As to conditions: uncoated DE53, mTeSR1, 10 μM daily, 12 passages. How it is done:
as §3

In assay [7] the target is phosphatidylinositol 3 (PI3) kinase. The conditions noted are these: cited from earlier work.
The subject of assay [8] is P14 kinase, PKC, MAP kinase or c-Src. The conditions noted are these: concentration of 50 μM; cited from earlier work.
Setting [9] is: 10 μM, daily continuous addition, after 9 weeks.
The mark [10] stands for this setting: single dose addition (10 μM), after 6 weeks (P6).

Sequence of MLCK (Q15746 whole entry): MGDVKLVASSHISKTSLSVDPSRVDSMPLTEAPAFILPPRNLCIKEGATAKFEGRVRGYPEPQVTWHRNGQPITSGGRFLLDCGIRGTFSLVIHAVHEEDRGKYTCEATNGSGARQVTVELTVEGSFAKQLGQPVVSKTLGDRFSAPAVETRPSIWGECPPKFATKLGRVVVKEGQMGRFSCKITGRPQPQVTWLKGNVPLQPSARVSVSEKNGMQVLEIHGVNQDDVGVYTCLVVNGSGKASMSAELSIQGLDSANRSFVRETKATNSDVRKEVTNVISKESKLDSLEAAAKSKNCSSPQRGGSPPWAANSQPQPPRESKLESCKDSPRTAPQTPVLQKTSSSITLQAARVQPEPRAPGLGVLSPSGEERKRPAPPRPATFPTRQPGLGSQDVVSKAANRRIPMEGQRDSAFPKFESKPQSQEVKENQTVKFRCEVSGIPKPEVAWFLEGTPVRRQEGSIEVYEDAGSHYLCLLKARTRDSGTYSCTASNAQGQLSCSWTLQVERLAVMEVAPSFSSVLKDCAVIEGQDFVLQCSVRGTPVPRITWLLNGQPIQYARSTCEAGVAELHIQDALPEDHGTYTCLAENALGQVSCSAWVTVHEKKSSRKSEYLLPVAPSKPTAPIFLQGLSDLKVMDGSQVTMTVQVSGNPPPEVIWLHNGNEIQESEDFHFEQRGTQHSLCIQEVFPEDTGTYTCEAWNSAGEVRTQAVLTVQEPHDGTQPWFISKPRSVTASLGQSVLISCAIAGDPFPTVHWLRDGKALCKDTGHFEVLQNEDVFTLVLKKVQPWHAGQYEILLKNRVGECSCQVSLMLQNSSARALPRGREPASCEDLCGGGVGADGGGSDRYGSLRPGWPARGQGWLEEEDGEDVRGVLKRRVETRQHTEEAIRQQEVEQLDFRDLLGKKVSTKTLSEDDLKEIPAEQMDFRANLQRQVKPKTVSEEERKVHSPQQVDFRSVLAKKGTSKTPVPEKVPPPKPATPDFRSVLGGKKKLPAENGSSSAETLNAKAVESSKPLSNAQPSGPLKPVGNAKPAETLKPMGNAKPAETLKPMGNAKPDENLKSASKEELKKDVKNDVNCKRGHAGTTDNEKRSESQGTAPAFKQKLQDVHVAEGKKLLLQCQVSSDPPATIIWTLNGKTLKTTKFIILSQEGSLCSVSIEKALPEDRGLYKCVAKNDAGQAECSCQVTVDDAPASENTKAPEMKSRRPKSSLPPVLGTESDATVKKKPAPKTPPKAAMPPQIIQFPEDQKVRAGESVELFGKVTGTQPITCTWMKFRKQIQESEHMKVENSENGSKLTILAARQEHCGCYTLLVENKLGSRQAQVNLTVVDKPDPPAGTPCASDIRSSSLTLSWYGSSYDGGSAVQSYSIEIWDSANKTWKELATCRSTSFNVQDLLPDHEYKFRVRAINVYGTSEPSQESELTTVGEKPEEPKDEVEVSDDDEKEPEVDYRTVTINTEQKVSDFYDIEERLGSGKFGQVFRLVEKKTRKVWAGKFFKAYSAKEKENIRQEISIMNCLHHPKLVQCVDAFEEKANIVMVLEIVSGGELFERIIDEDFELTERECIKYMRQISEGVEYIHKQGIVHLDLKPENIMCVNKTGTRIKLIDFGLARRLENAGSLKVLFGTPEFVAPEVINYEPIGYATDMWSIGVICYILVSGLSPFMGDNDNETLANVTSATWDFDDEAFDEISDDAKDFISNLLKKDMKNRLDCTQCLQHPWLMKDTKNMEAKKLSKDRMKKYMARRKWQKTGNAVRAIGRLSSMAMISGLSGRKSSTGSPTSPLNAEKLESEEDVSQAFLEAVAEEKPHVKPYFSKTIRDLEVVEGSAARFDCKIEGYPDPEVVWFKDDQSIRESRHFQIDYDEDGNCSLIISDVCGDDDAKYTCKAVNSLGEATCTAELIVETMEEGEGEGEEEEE

In general, IC50 refers to the midpoint of a concentration-inhibition curve. With Aurothioglucose, on PKCiota-Par6 interaction, the IC50 is 1000 nM. The “expression of pluripotent markers Oct4 and mAb 84” value in the assay on hESC [1] (cellulose microcarriers without Matrigel, passage 0 and 1, compared to Matrigel control) was “stable expression”. Further, the “expression of pluripotency markers Oct4 and mAb84” value with hESC [1] (uncoated DE53, through passage 4) is listed as “continued strong expression”. The compound also registered a passage successfully reached in the assay on hESC [2] (uncoated DE53) of 4 passage. Further, the “expression of pluripotent marker Oct4” value with hESC (HES-2) [3] (setting [9]) is reported as around 50%; with hESC (HES-2) [3] (setting [10]) it was 60%. For the same compound, the figures for the “expression of pluripotent marker Tra-1-60” value with hESC (HES-2) [3] (setting [9]) and in the assay on hESC (HES-2) [3] (setting [10]) were around 60% and around 70%, respectively.
By Ki is commonly meant a measure of affinity in units of concentration, obtained from inhibition or displacement. In the case of `Cc1cncc2cccc(S(=O)(=O)N3CCCNCC3C)c12` (stereo in doubt) [H-1152, (S)-(+)-2-Methyl-1-[(4-methyl-5-isoquinolinyl)sulfonyl]homopiperazine], the values for the Ki at MLCK, on Rho kinase (ROCK) and on PKC were 10100 nM, 1.6 nM and 9270 nM, respectively.
As for `C[C@@H](N)[C@H]1CC[C@H](C(=O)Nc2ccncc2)CC1` [Y-27632, (R)-(+)-trans-N-(4-Pyridyl)-4-(1-aminoethyl)-cyclohexanecarboxamide.2HCl], the “Oct4 and Tra-1-60 expression” value in the assay on iPS IMR90 cells [4] is given as “stable over 12 passages”. In addition, the “expression of pluripotent markers Oct4 and mAb 84” value is reported as “robust expression” in the assay on hESC [1] (Cytodex 1, Cytodex 3, cellulose and Tosoh microcarriers without Matrigel, passage 5); “stable expression” in the assay with hESC [1] (DE53 without Matrigel, over 3 weeks). Besides, the “expression of pluripotent markers Oct4, mAb 84 and Tra-1-60” value in the assay with hESC [1] (DE53 without Matrigel, 9 weeks) was “still robust”. Moreover, the “expression of pluripotent markers Oct4 and Tra-1-60” value with hESC [1] (Tosoh polylysine microcarriers without Matrigel, passage 4) is listed as “strongly expressed”. Further, the “consecutive weeks of passaging hESC” value in the assay on hESC [2] (cellulose DE53 microcarriers, no Matrigel, 10 μM) was 9 weeks; with hESC [2] (cellulose, Tosoh, Cytodex 1 and Cytodex 3 microcarriers, no Matrigel), “five”; in the assay with hESC [2] (spherical polylysine Tosoh 65 micron microcarriers, no Matrigel), “six”. In the assay with hESC [2] (cellulose and Tosoh microcarriers, no Matrigel, passage 5), this compound gave a cell numbers of 4 million/well. Further, the “expression of Tra-1-60 (FACS)” value in the assay on hESC (HES-2) [5] is given as around 94%; in the assay with hESC (HES-2) [3] (DE53, 10 μM, passage 5), around 92%. For the same compound, the “pluripotent marker expression (Tra-1-60) versus Matrigel control cultures” value with hESC (HES-2) [3] (Cytodex 1 and DE53 microcarriers, 10 μM) was “similar”. Also, the “expression of pluripotent marker Oct4” value in the assay on hESC (HES-2) [3] (setting [10]) stood at 60%. The “expression of pluripotent marker Tra-1-60” value in the assay with hESC (HES-2) [3] (setting [10]) is given as “about 80%”. Moreover, the cell density result in the assay on iPS IMR90 cells [6] is reported as “stable over 12 passages”.
As to `c1ccc2c(-c3ccncc3)c[nH]c2c1` [3-(4-Pyridyl)-1H-indole], on Rho kinase (ROCK), the 50% inhibitory concentration (IC50) was 25000 nM.
For `O=c1cc(N2CCOCC2)oc2c(-c3ccccc3)cccc12` [LY294002], in [7], the IC50 is 1400 nM and the “IC50 PI3 kinase activity” value is 0.43 µg/mL (≈ 1.4 µM). In addition, the “effect on PI3 kinase activity” value in assay [7] (concentration of 50 μM) is reported as “specifically abolished PI3 kinase activity”. Moreover, the “inhibition of other lipid and protein kinases” value in assay [8] was “did not inhibit”.
Take `O=C(Nc1ccncc1)Nc1c(Cl)cc(Cl)cc1Cl` [N-(4-Pyridyl)-N′-(2,4,6-trichlorophenyl) urea]: the IC50 at Rho kinase (ROCK) is 200 nM.
For `Cl.O=S(=O)(c1cccc2c(O)nccc12)N1CCCNCC1` [HA-1100], the “expression of pluripotent marker Tra-1-60” value with hESC (HES-2) [3] (setting [9]) is reported as “about 80%”. For the same compound, in the assay with hESC (HES-2) [3] (setting [10]), the “expression of pluripotent marker Oct4” value is reported as 60% and the “expression of pluripotent marker Tra-1-60” value is on record as around 50%.
For `O=S(=O)(c1cccc2cnccc12)N1CCCNCC1` [HA-1077], in that order: “about 80%”, 60% and “about 80%”.
